Test results: patent publication US20260274833A1 (NiKang Therapeutics, Inc., priority 2022, published 2026)

target: T1, CDK2 (Homo sapiens, UniProt P24941); test: Phospho-RB measurement in OVCAR3 cells (HTRF phospho-RB cellular kit); format: cell-based; details: inhibition of RB phosphorylation at S807/811 (HTRF, TR-FRET ratio 665/620), 24 h compound treatment, 0.3 to 10,000 nM
T1 construct: endogenous in cells; host or cells: OVCAR3 cells
Procedure, shortened: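 IC50 came from a four-parameter logistic fit of the DMSO-normalized TR-FRET ratio (665/620 nm). That ratio reflects RB phosphorylation at S807/811, read with an HTRF antibody pair 4 h after adding lysate at room temperature.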

| IC50 [nM] | SMILES |
| --- | --- |
| 3730 | CC(C)(C)c1nc(-c2cccc(NS(=O)(=O)N3CCc4ccccc4CC3)c2F)c(-c2ccnc(NC3CCN(S(C)(=O)=O)CC3)n2)s1 [Example 81, N-(3-(2-(tert-butyl)-5-(2-((1-(methylsulfonyl)-piperidin-4-yl)amino)-pyrimidin-4-yl)thiazol-4-yl)-2-fluoro-phenyl)-1,2,4,5-tetrahydro-3H-benzo[d]azepine-3-sulfonamide] |
| 161 | O=S1(=O)CC2(CC(Nc3nccc(-c4sc(C56CC(C5)C6)nc4-c4cccc(NS(=O)(=O)N5CCc6ccc(C(F)F)cc65)c4F)n3)C2)C1 [Example 27, N-(3-(2-(bicyclo [1.1.1]pentan-1-yl)-5-(2-((2,2-dioxido-2-thiaspiro[3.3]heptan-6-yl)amino)-pyrimidin-4-yl)thiazol-4-yl)-2-fluorophenyl)-6-(difluoromethyl)-indoline-1-sulfonamide] |
| 454 | CN(C)S(=O)(=O)Nc1cccc(-c2nc(C(C)(C)C)sc2-c2ccnc(NC3CCN(S(=O)(=O)N4CCNCC4)CC3)n2)c1F [Example 96, N-(3-(2-(tert-butyl)-5-(2-((1-(piperazin-1-ylsulfonyl)piperidin-4-yl)amino)-pyrimidin-4-yl)thiazol-4-yl)-2-fluorophenyl) dimethylamine-sulfonamide] |
| 86.9 | CC(C)(C)c1nc(-c2cccc(NS(=O)(=O)N3CCc4ccc(C#N)cc43)c2F)c(-c2ccnc(NC3CCN(S(=O)(=O)N4CCNCC4)CC3)n2)s1 [Example 120, N-(3-(2-(tert-butyl)-5-(2-((1-(piperazin-1-ylsulfonyl)piperidin-4-yl)amino)-pyrimidin-4-yl)thiazol-4-yl)-2-fluorophenyl)-6-cyanoindoline-1-sulfonamide] |
| 262 | CS(=O)(=O)[C@H]1CC[C@H](Nc2nccc(-c3sc(C45CC(C(F)(F)F)(C4)C5)nc3-c3cccc(NS(=O)(=O)N4CCc5ccccc54)c3F)n2)CC1 [Example 53] |
| 1200 | CC(C)(C)c1nc(-c2cccc(NS(=O)(=O)N3Cc4ccc(C(F)(F)F)cc4C3)c2F)c(-c2ccnc(NC3CCN(S(C)(=O)=O)CC3)n2)s1 [Example 243, N-(3-(2-(tert-butyl)-5-(2-((1-(methylsulfonyl)-piperidin-4-yl)amino)-pyrimidin-4-yl)thiazol-4-yl)-2-fluoro-phenyl)-5-(trifluoromethyl)-isoindoline-2-sulfonamide] |
| 1920 | CC(C)(C)c1nc(-c2cccc(NS(=O)(=O)N3CCn4ccnc4C3)c2F)c(-c2ccnc(NC3CCN(S(C)(=O)=O)CC3)n2)s1 [Example 84, N-(3-(2-(tert-butyl)-5-(2-((1-(methylsulfonyl)-piperidin-4-yl)amino)-pyrimidin-4-yl)thiazol-4-yl)-2-fluoro-phenyl)-5,6-dihydroimidazo [1,2-a]-pyrazine-7(8H)-sulfonamide] |

The remaining lines, values behind:

| SMILES | IC50 [nM] |
| --- | --- |
| CN(C)Cc1ccc2c(c1)N(S(=O)(=O)Nc1cccc(-c3nc(C(C)(C)C)sc3-c3ccnc(NC4CCN(S(C)(=O)=O)CC4)n3)c1F)CC2 [Example 142, N-(3-(2-(tert-butyl)-5-(2-((1-(methylsulfonyl)-piperidin-4-yl)amino)-pyrimidin-4-yl)thiazol-4-yl)-2-fluoro-phenyl)-6-((dimethylamino)-methyl)-indoline-1-sulfonamide] | 341 |
| CS(=O)(=O)[C@H]1CC[C@H](Nc2nccc(-c3sc(N4C5CCC4CN(CC(F)F)C5)nc3-c3cccc(NS(=O)(=O)N4CCc5ccc(C(F)(F)F)cc54)c3F)n2)CC1 [Example 299, N-(3-(2-(3-(2,2-difluoroethyl)-3,8-diazabicyclo[3.2.1]octan-8-yl)-5-(2-(((1r,4r)-4-(methylsulfonyl)cyclohexyl)-amino)pyrimidin-4-yl)thiazol-4-yl)-2-fluorophenyl)-6-(trifluoromethyl)-indoline-1-sulfonamide] | 449 |
| CC(C)(C)c1nc(-c2cccc(NS(=O)(=O)N3CCC4(CCC4)C3)c2F)c(-c2ccnc(NC3CCN(S(C)(=O)=O)CC3)n2)s1 [Example 174, N-(3-(2-(tert-butyl)-5-(2-((1-(methylsulfonyl)-piperidin-4-yl)amino)-pyrimidin-4-yl)thiazol-4-yl)-2-fluoro-phenyl)-6-azaspiro [3.4]octane-6-sulfonamide] | 853 |
| CC(C)(C)c1nc(-c2cccc(NS(=O)(=O)N3CCc4c(CC#N)cccc43)c2F)c(-c2ccnc(NC3CC4(C3)CS(=O)(=O)C4)n2)s1 [Example 238, N-(3-(2-(tert-butyl)-5-(2-((2,2-dioxido-2-thiaspiro[3.3]heptan-6-yl)amino)-pyrimidin-4-yl)thiazol-4-yl)-2-fluoro-phenyl)-4-(cyanomethyl) indoline-1-sulfonamide] | 295 |
| C[C@@H]1Cc2ccccc2N1S(=O)(=O)Nc1cccc(-c2nc(C(C)(C)C)sc2-c2ccnc(NC3CCN(S(=O)(=O)N4CCNCC4)CC3)n2)c1F [Example 140, (R)-N-(3-(2-(tert-butyl)-5-(2-((1-(piperazin-1-ylsulfonyl)piperidin-4-yl)amino)pyrimidin-4-yl)thiazol-4-yl)-2-fluorophenyl)-2-methyl-indoline-1-sulfonamide] | 622 |
| Cn1cc2c(n1)CN(S(=O)(=O)Nc1cccc(-c3nc(C(C)(C)C)sc3-c3ccnc(Nc4ccc(N5CCNCC5)cc4)n3)c1F)C2 [Example 252, N-(3-(2-(tert-butyl)-5-(2-((4-(piperazin-1-yl)-phenyl)amino)pyrimidin-4-yl)-thiazol-4-yl)-2-fluorophenyl)-2-methyl-2,6-dihydropyrrolo-[3,4-c]pyrazole-5(4H)-sulfonamide] | 3310 |
| CC(C)(c1nc(-c2cccc(NS(=O)(=O)N3CCc4ccc(Cl)cc43)c2F)c(-c2ccnc(N[C@H]3CC[C@H](S(C)(=O)=O)CC3)n2)s1)C(F)(F)F [Example 289, 6-chloro-N-(2-fluoro-3-(5-(2-(((1r,4r)-4-(methylsulfonyl)cyclohexyl)amino)pyrimidin-4-yl)-2-(1,1,1-trifluoro-2-methyl-propan-2-yl)thiazol-4-yl)phenyl)-indoline-1-sulfonamide] | 110 |
| CC(C)(C)c1nc(-c2cccc(NS(=O)(=O)N3Cc4cccc(OC(F)F)c4C3)c2F)c(-c2ccnc(NC3CC4(C3)CS(=O)(=O)C4)n2)s1 [Example 205, N-(3-(2-(tert-butyl)-5-(2-((2,2-dioxido-2-thiaspiro[3.3]heptan-6-yl)amino)-pyrimidin-4-yl)thiazol-4-yl)-2-fluorophenyl)-4-(difluoromethoxy)-isoindoline-2-sulfonamide] | 40.4 |
| CN(C)Cc1ccc2c(c1)CCN2S(=O)(=O)Nc1cccc(-c2nc(C(C)(C)C)sc2-c2ccnc(NC3CCN(S(C)(=O)=O)CC3)n2)c1F [Example 189, N-(3-(2-(tert-butyl)-5-(2-((1-(methylsulfonyl)-piperidin-4-yl)amino)-pyrimidin-4-yl)thiazol-4-yl)-2-fluoro-phenyl)-5-((dimethylamino)-methyl)-indoline-1-sulfonamide] | 1550 |
| O=S1(=O)CC2(CC(Nc3nccc(-c4sc(C56CC(C5)C6)nc4-c4cccc(NS(=O)(=O)N5CCc6ccc(OC(F)F)cc65)c4F)n3)C2)C1 [Example 48, N-(3-(2-(bicyclo [1.1.1]pentan-1-yl)-5-(2-((2,2-dioxido-2-thiaspiro[3.3]heptan-6-yl)amino)-pyrimidin-4-yl)thiazol-4-yl)-2-fluorophenyl)-6-(difluoromethoxy)-indoline-1-sulfonamide] | 139 |
| CC(C)(C)c1nc(-c2cccc(NS(=O)(=O)N3Cc4cccc(Oc5ccc(F)cc5)c4C3)c2F)c(-c2ccnc(NC3CC4(C3)CS(=O)(=O)C4)n2)s1 [Example 215, N-(3-(2-(tert-butyl)-5-(2-((2,2-dioxido-2-thiaspiro[3.3]heptan-6-yl)amino)-pyrimidin-4-yl)thiazol-4-yl)-2-fluoro-phenyl)-4-(4-fluoro-phenoxy)-isoindoline-2-sulfonamide] | 601 |
| CN1CC2CCC(C1)N2c1nc(-c2cccc(NS(=O)(=O)N3CCc4ccc(C(F)(F)F)cc43)c2F)c(-c2ccnc(NC3CC4(C3)CS(=O)(=O)C4)n2)s1 [Example 44, N-(3-(5-(2-((2,2-dioxido-2-thiaspiro-[3.3]heptan-6-yl)amino)pyrimidin-4-yl)-2-(3-methyl-3,8-diazabicyclo[3.2.1]-octan-8-yl)thiazol-4-yl)-2-fluorophenyl)-6-(trifluoromethyl) indoline-1-sulfonamide] | 56 |
| O=S1(=O)CC2(CC(Nc3nccc(-c4sc(C56CC(C5)C6)nc4-c4cccc(NS(=O)(=O)N5Cc6cccc(C(F)(F)F)c6C5)c4F)n3)C2)C1 [Example 25, N-(3-(2-(bicyclo [1.1.1]pentan-1-yl)-5-(2-((2,2-dioxido-2-thiaspiro[3.3]heptan-6-yl)amino)-pyrimidin-4-yl)thiazol-4-yl)-2-fluorophenyl)-4-(trifluoromethyl)-isoindoline-2-sulfonamide] | 75.1 |
| CN(C)Cc1cccc2c1CN(S(=O)(=O)Nc1cccc(-c3nc(C(C)(C)C)sc3-c3ccnc(NC4CCN(S(C)(=O)=O)CC4)n3)c1F)C2 [Example 167, N-(3-(2-(tert-butyl)-5-(2-((1-(methylsulfonyl)-piperidin-4-yl)amino)-pyrimidin-4-yl)thiazol-4-yl)-2-fluoro-phenyl)-4-((dimethylamino)-methyl)-isoindoline-2-sulfonamide] | 410 |
| C[C@H]1COC[C@H](C)N1c1nc(-c2cccc(NS(=O)(=O)N3CCc4ccc(C(F)(F)F)cc43)c2F)c(-c2ccnc(N[C@H]3CC[C@H](S(C)(=O)=O)CC3)n2)s1 [Example 297, N-(3-(2-((38, 5S)-3,5-dimethyl-morpholino)-5-(2-(((1r,4S)-4-(methyl-sulfonyl)cyclohexyl)amino)pyrimidin-4-yl)thiazol-4-yl)-2~fluorophenyl)-6-(trifluoromethyl) indoline-1-sulfonamide] | 103 |
| CC(C)(C)c1nc(-c2cccc(NS(=O)(=O)N3CCc4ccc(C#N)cc43)c2F)c(-c2ccnc(NC3CCN(S(C)(=O)=O)CC3)n2)s1 [Example 118, N-(3-(2-(tert-butyl)-5-(2-((1-(methylsulfonyl)-piperidin-4-yl)amino)-pyrimidin-4-yl)thiazol-4-yl)-2-fluorophenyl)-6-cyanoindoline-1-sulfonamide] | 66.9 |
